This assay concerns the target DYRK1A (Homo sapiens (Human), UniProt Q13627). Nature of the assay: DYRK1A Inhibition Assay. It is filed as biochemical. Conditions: Compounds of Formula (I); DYRK1A 1 nM, ATP 20 μM, Ser/Thr 18 peptide 2 μM, 90 minutes; read-out: DYRK1 IC50. How it is done:
• DYRK1A—Invitrogen #PV4105 • Ser/Thr 18 peptide—Invitrogen #PR8227U • Phos-Ser/Thr 18 peptide—Invitrogen #PR8229U • Assay plate—PerkinElmer #6007279 • ATP—Sigma #A7699-5G • Development reagent A—Invitrogen #PR5194B • Development buffer—Invitrogen #PR4876B
• 1. Test compounds were diluted to 1 mM in DMSO • 2. Stock was further diluted 3-fold using Echo platform • 3. 100 nL of DMSO into Columns 1 and 24 and 100 nL of compounds dilutions to Columns 2-23 in a plate.
• 1. Add 5 μL enzyme & substrate mixture to each well in Column 2-23 and A24-H24 wells of the 384-well assay plate; • 2. Add 5 μL 0% Phosphorylation control to A1-H1 and I24-P24 wells of the assay plate; • 3. Add 5 μL 100% Phosphorylation control to I1-P1 wells of the assay plate; • 4. Spin the assay plate (1000 rpm, 1 minute @23° C.); • 5. Incubate enzyme with compounds for 15 minutes at 23° C.; • 6. Add 5 μL ATP solution to each well of the assay plate; • 7. Spin the plate (1000 rpm, 1 minute @23° C.); • 8. Incubate the assay plate for 90 minutes at 23° C.; • 9. Add 10 μL Development reagent A to each well of the assay plate; • 10. Centrifuge the plate at 1000 rpm about 15 seconds and seal a film over assay plate. Incubate the assay plate for 30 minutes at 23° C. • 11. Read assay plates on Envision (see Tables A and B).
Final Compound Concentrations […]

Take `C(#CC1CCNCC1)c1ccc2c(-c3ccncc3)c[nH]c2n1` [Compound 97]: the IC50 – broadly, the concentration that inhibits the measured activity by half – lay in the range of 0.1 to 1 µM.

These data come from patent US20250099442A1, “COMPOUNDS FOR USE IN TREATING NEUROLOGICAL DISORDERS” (Prothena Biosciences Limited, priority 2021, published 2025).
